Values after ≈ are worked out from the molar mass of the structure shown. Counter-ions that a name gives are not always drawn. Like-named read-outs stand apart in the source and are kept apart here.
Key:
Assay in all cases: MIC by agar dilution method in Mueller Hinton agar
Format in all cases: cell-based
Acinetobacter sp. 51-156 = details: SP.51156
Procedure: (§1) In vitro activity was determined by minimum inhibitory concentration in a microorganism spectrum by the agar dilution method in Mueller Hinton agar.

B. fragilis ATCC25285 = details: Bacteroides fragilis
Procedure: as §1

C. difficile ZH1 = details: Clostridioides difficile
Procedure: as §1

C. freundii 43 = details: Citrobacter freundii
Procedure: as §1

E. cloacae 908R = details: Enterobacter cloacae
Procedure: as §1

E. cloacae 908SSi = details: Enterobacter cloacae
Procedure: as §1

E. faecalis 6 = details: Enterococcus faecalis
Procedure: as §1

L. monocytogenes BK23 = details: Listeria monocytogenes
Procedure: as §1

M. catarrhalis RA21 = details: Moraxella catarrhalis
Procedure: as §1

P. aeruginosa 27853 = details: Pseudomonas aeruginosa
Procedure: as §1

[1] = system: P. asaccharolyticus 29743; details: Peptoniphilus asaccharolyticus
Procedure: as §1

P. vulgaris 1028 = details: Proteus vulgaris
Procedure: as §1

S. agalactiae QK44 = details: Streptococcus agalactiae
Procedure: as §1

S. aureus 6538 = details: Staphylococcus aureus
Procedure: as §1

S. aureus 734 MRSA = details: Staphylococcus aureus
Procedure: as §1

S. marscescens 69438 = system: S. marscescens 69438
Procedure: as §1

X. maltophilia 1AC739 = details: Stenotrophomonas maltophilia
Procedure: as §1

C. freundii 902 = details: Citrobacter freundii
Procedure: as §1

E. coli 25922 = details: Escherichia coli
Procedure: as §1

K. pneumoniae 418 = details: Klebsiella pneumoniae
Procedure: as §1

M. morganii 6H-137 = details: Morganella morganii, 6H137
Procedure: as §1

P. mirabilis 2117 = details: Proteus mirabilis
Procedure: as §1

S. viridans group 016 = details: Streptococcus viridans, GROUP016
Procedure: as §1

H. influenzae 1 = details: Haemophilus influenzae
Procedure: as §1

[2] = E. cloacae 908SSi, read-out: MIC
[3] = L. monocytogenes BK23, read-out: MIC
[4] = P. aeruginosa 27853, read-out: MIC
[5] = K. pneumoniae 418, read-out: MIC
[6] = P. mirabilis 2117, read-out: MIC
[7] = C. difficile ZH1, read-out: MIC
[8] = P. vulgaris 1028, read-out: MIC
[9] = Acinetobacter sp. 51-156, read-out: MIC
[10] = X. maltophilia 1AC739, read-out: MIC

| SMILES | MIC (Acinetobacter sp. 51-156; Acinetobacter) [µg/mL] | MIC (B. fragilis ATCC25285; ATCC25285) [µg/mL] | MIC (C. freundii 43; 43) [µg/mL] | MIC (E. faecalis 6; 6) [µg/mL] | MIC (M. catarrhalis RA21; RA21) [µg/mL] | MIC (P. aeruginosa 27853; [4]) [µg/mL] | MIC (P. vulgaris 1028; 1028) [µg/mL] | MIC (S. agalactiae QK44) [µg/mL] | MIC (S. aureus 6538; 6538) [µg/mL] | MIC (S. aureus 734 MRSA; MRSA) [µg/mL] | MIC (S. marscescens 69438) [µg/mL] | MIC (X. maltophilia 1AC739; 1AC739) [µg/mL] | MIC (E. cloacae 908R; 908R) [µg/mL] | MIC (E. cloacae 908SSi; 908SSI) [µg/mL] | MIC (E. coli 25922; 25922) [µg/mL] | MIC (L. monocytogenes BK23; BK23) [µg/mL] | MIC (S. viridans group 016) [µg/mL] | MIC (C. freundii 43; C. freundii 43, read-out: MIC) [µg/mL] | MIC (C. freundii 902; 902) [µg/mL] | MIC (K. pneumoniae 418; 418) [µg/mL] | further results |
| --- | --- | --- | --- | --- | --- | --- | --- | --- | --- | --- | --- | --- | --- | --- | --- | --- | --- | --- | --- | --- | --- |
| Nc1nc(/C(=N/O)C(=O)N[C@@H]2C(=O)N3C(C(=O)O)=C(/C=C4\CCN(C5CCNCC5)C4=O)CS[C@H]23)cs1 [G, (6R,7R)-7-[(Z)-2-(2-Amino-thiazol-4-yl)-2-hydroxyimino-acetylamino]-8-oxo-3-[(E)-2-oxo-1-piperidin-4-yl-pyrrolidin-3-ylidenemethyl]-5-thia-1-aza-bicyclo[4.2.0-]oct-2-ene-2-carboxylic acid hydrochloride (1:2)] | 32 | 16 | 2 | 1 | 2 | 8 | > 32 | 0.25 | 1 | 8 | 1 | > 32 | – | – | – | – | – | – | – | – | MIC (C. difficile ZH1; ZH1): 16 µg/mL; MIC (E. cloacae 908R; E. cloacae 908R, read-out: MIC): 4 µg/mL; MIC (E. cloacae 908SSi; [2]): 0.25 µg/mL; MIC (L. monocytogenes BK23; [3]): 4 µg/mL; MIC [1]: 1 µg/mL |
| Nc1nc(/C(=N/O)C(=O)N[C@@H]2C(=O)N3C(C(=O)O)=C(/C=C4\CCN(Cc5nc6ccccc6[nH]5)C4=O)CS[C@H]23)cs1 [H, (6R,7R)-7-[(Z)-2-(2-Amino-thiazol-4-yl)-2-hydroxyimino-acetylamino]-3-[(E)-1-(1H-benzimidazol-2-ylmethyl)-2-oxo-pyrrolidin-3-ylidenemethyl]-8-oxo-5-thia-1-aza-bicyclo[4.2.0]oct-2-ene-2-carboxylic acid trifluoracetate (1:1:1)] | > 32 | – | 2 (≈ 3.36 µM) | 2 (≈ 3.36 µM) | 4 (≈ 6.73 µM) | > 32 | 16 (≈ 26.9 µM) | 0.25 (≈ 0.42 µM) | 1 (≈ 1.68 µM) | 8 (≈ 13.5 µM) | 1 (≈ 1.68 µM) | > 32 | 4 (≈ 6.73 µM) | 0.5 (≈ 0.841 µM) | 0.12 (≈ 0.202 µM) | 4 (≈ 6.73 µM) | 0.5 (≈ 0.841 µM) | – | – | – | MIC (B. fragilis ATCC25285; B. fragilis ATCC25285, read-out: MIC): 8 µg/mL (≈ 13.5 µM); MIC (C. difficile ZH1; ZH1): 16 µg/mL (≈ 26.9 µM); MIC (C. freundii 902; C. freundii 902, read-out: MIC): 0.12 µg/mL (≈ 0.202 µM); MIC (K. pneumoniae 418; [5]): 0.12 µg/mL (≈ 0.202 µM); MIC (M. morganii 6H-137): 0.25 µg/mL (≈ 0.42 µM); MIC [1]: 1 µg/mL (≈ 1.68 µM); MIC (P. mirabilis 2117; [6]): 0.25 µg/mL (≈ 0.42 µM) |
| Nc1nc(/C(=N/O)C(=O)N[C@@H]2C(=O)N3C(C(=O)O)=C(/C=C4\CCN(Cc5cccc(O)c5)C4=O)CS[C@H]23)cs1 [E, (6R,7R)-7-[(Z)-2-(2-Amino-thiazol-4-yl)-2-(hydroxyimino-acetylamino]-3-[(E)-1-(3-hydroxybenzyl)-2-oxo-pyrrolidin-3-ylidenemethyl]-8-oxo-5-thia-1-azabicyclo[4.2.0]oct-2-ene-2-carboxylic acid trifluoroacetate] | 32 | 8 | – | 0.5 | 2 | – | – | 0.12 | – | – | 0.5 | > 32 | – | 0.5 | – | 2 | 0.5 | 4 | 0.25 | 0.25 | MIC (C. difficile ZH1; [7]): 4 µg/mL; MIC (E. cloacae 908R; E. cloacae 908R, read-out: MIC): 8 µg/mL; MIC (P. aeruginosa 27853; 27853): 8 µg/mL; MIC (P. vulgaris 1028; [8]): 16 µg/mL; MIC (S. aureus 6538; S. aureus 6538, read-out: MIC): 0.5 µg/mL; MIC (S. aureus 734 MRSA; S. aureus 734 MRSA, read-out: MIC): 16 µg/mL |
| CO/N=C(\C(=O)N[C@@H]1C(=O)N2C(C(=O)O)=C(CSc3nc(=O)c(=O)[nH]n3C)CS[C@H]12)c1csc(N)n1 [II, reference compound] | – | – | – | – | – | 16 (≈ 28.9 µM) | – | – | 4 (≈ 7.21 µM) | > 32 | – | – | > 32 | – | – | – | – | 32 (≈ 57.7 µM) | – | – | MIC (Acinetobacter sp. 51-156; [9]): 32 µg/mL (≈ 57.7 µM); MIC (C. freundii 902; C. freundii 902, read-out: MIC): 0.25 µg/mL (≈ 0.451 µM); MIC (E. cloacae 908SSi; [2]): 0.25 µg/mL (≈ 0.451 µM); MIC (E. faecalis 6; E. faecalis 6, read-out: MIC): > 32 µg/mL; MIC (L. monocytogenes BK23; [3]): > 16 µg/mL; MIC (M. catarrhalis RA21; M. catarrhalis RA21, read-out: MIC): 1 µg/mL (≈ 1.8 µM); MIC (P. vulgaris 1028; [8]): 0.12 µg/mL (≈ 0.216 µM); MIC (S. marscescens 69438; S. marscescens 69438, read-out: MIC): 0.25 µg/mL (≈ 0.451 µM); MIC (S. viridans group 016; S. viridans group 016, read-out: MIC): 0.25 µg/mL (≈ 0.451 µM); MIC (X. maltophilia 1AC739; [10]): > 32 µg/mL |
| Nc1nc(/C(=N/O)C(=O)N[C@@H]2C(=O)N3C(C(=O)O)=C(/C=C4\CCN(c5ccc(O)c(F)c5)C4=O)CS[C@H]23)cs1 [C, (6R,7R)-7-[(Z)-2-(2-Amino-thiazol-4-yl)-2-(hydroxyimino-acetylamino]-3-[(E)-1-(3-fluoro-4-hydroxy-phenyl)-2-oxo-pyrrolidin-3-ylidenemethyl]-8-oxo-5-thia-1-azabicyclo[4.2.0]oct-2-ene-2-carboxylic acid trifluoroacetate] | – | – | – | 1 | – | – | 8 | 0.06 | 0.5 | 4 | 1 | – | – | 0.5 | 0.12 | 1 | 0.12 | 4 | 0.12 | 0.12 | MIC (Acinetobacter sp. 51-156; [9]): 32 µg/mL; MIC (E. cloacae 908R; E. cloacae 908R, read-out: MIC): 32 µg/mL; MIC (P. aeruginosa 27853; 27853): 4 µg/mL; MIC (X. maltophilia 1AC739; [10]): > 32 µg/mL |
| Nc1nc(/C(=N/O)C(=O)N[C@@H]2C(=O)N3C(C(=O)O)=C(/C=C4\CCN(c5cccc([N+](=O)[O-])c5)C4=O)CS[C@H]23)cs1 [B] | 16 (≈ 27.3 µM) | 2 (≈ 3.42 µM) | 1 (≈ 1.71 µM) | – | > 16 | – | 16 (≈ 27.3 µM) | 0.5 (≈ 0.854 µM) | 0.25 (≈ 0.427 µM) | 4 (≈ 6.83 µM) | 1 (≈ 1.71 µM) | > 32 | 2 (≈ 3.42 µM) | 0.25 (≈ 0.427 µM) | 0.12 (≈ 0.205 µM) | 4 (≈ 6.83 µM) | 1 (≈ 1.71 µM) | – | 0.12 (≈ 0.205 µM) | – | MIC (C. difficile ZH1; ZH1): 16 µg/mL (≈ 27.3 µM); MIC (E. faecalis 6; E. faecalis 6, read-out: MIC): 0.25 µg/mL (≈ 0.427 µM); MIC (H. influenzae 1): 0.5 µg/mL (≈ 0.854 µM); MIC (K. pneumoniae 418; [5]): 0.25 µg/mL (≈ 0.427 µM); MIC (P. aeruginosa 27853; 27853): 16 µg/mL (≈ 27.3 µM); MIC (P. mirabilis 2117; 2117): 0.12 µg/mL (≈ 0.205 µM) |
| Nc1nc(/C(=N/O)C(=O)N[C@@H]2C(=O)N3C(C(=O)O)=C(/C=C4\CCN(c5nncs5)C4=O)CS[C@H]23)cs1 [F, (6R,7R)-7-[(Z)-2-(2-Amino-thiazol-4-yl)-2-hydroxyimino-acetylamino]-8-oxo-3-[(E)-2-oxo-1-(1,3,4-thiadiazol-2-yl)-pyrrolidin-3-ylidenemethyl]-5-thia-1-aza-bicyclo[4.2.0]oct-2-ene-2-carboxylic acid trifluoracetate (1:1)] | > 32 | – | – | 1 (≈ 1.82 µM) | > 16 | > 32 | > 32 | 0.25 (≈ 0.456 µM) | 1 (≈ 1.82 µM) | 16 (≈ 29.2 µM) | 32 (≈ 58.3 µM) | > 32 | > 32 | 1 (≈ 1.82 µM) | 0.12 (≈ 0.219 µM) | 4 (≈ 7.29 µM) | 0.5 (≈ 0.911 µM) | 8 (≈ 14.6 µM) | 0.12 (≈ 0.219 µM) | 0.25 (≈ 0.456 µM) | MIC (M. morganii 6H-137): 0.5 µg/mL (≈ 0.911 µM); MIC (P. mirabilis 2117; [6]): 0.25 µg/mL (≈ 0.456 µM) |
| Nc1ccc(CN2CC/C(=C\C3=C(C(=O)O)N4C(=O)[C@@H](NC(=O)/C(=N\O)c5csc(N)n5)[C@H]4SC3)C2=O)cc1 [D, (6R,7R)-7-[(Z)-2-(2-Amino-thiazol-4-yl)-2-(hydroxyimino-acetylamino]-3-[(E)-1-(4-aminobenzyl)-2-oxo-pyrrolidin-3-ylidenemethyl]-8-oxo-5-thia-1-azabicyclo[4.2.0-]oct-2-ene-2-carboxylic acid trifluoroacetate] | 32 | 8 | 8 | 1 | 4 | – | > 32 | 0.25 | 1 | 8 | 1 | > 32 | > 32 | 0.5 | – | 4 | 0.5 | – | – | 0.25 | MIC (C. difficile ZH1; [7]): 16 µg/mL; MIC (C. freundii 902; C. freundii 902, read-out: MIC): 0.25 µg/mL; MIC (E. coli 25922; E. coli 25922, read-out: MIC): 0.25 µg/mL; MIC (M. morganii 6H-137; M. morganii 6H-137, read-out: MIC): 0.12 µg/mL; MIC (P. aeruginosa 27853; 27853): > 32 µg/mL; MIC [1]: 1 µg/mL; MIC (P. mirabilis 2117; [6]): 0.12 µg/mL |

Reference: patent US5804577A, “Cephalosporin derivatives” (Hoffmann-La Roche Inc., priority 1995, dated 1998)
